According to patent US20240385182A1, “MASKED FLUOROGENIC LIPID COMPOUNDS, LIPID PARTICLES COMPRISING THE SAME, AND METHODS OF USE THEREOF” (Rutgers, The State University of New Jersey, priority 2023, published 2024):

Experiments:
[1] = Photophysical characterization of probes and uncaged forms (relative fluorescence quantum yield, extinction coefficient, brightness); type: physicochemical
Summary of the method: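 Relative fluorescence quantum yields of caged probes and uncaged forms, referenced to coumarin 343 (ΦF 0.63 in ethanol) for triazole-coumarins and fluorescein (ΦF 0.79 in ethanol) for triazole-fluoresceins. Measured in Tris 50 mM, pH 7.5; coumarin largely aryloxide (TEG-TC pKa 7.1±0.1 by UV-Vis).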

RAW-264.7 cells = test: Confocal imaging and colocalization in live RAW-264.7 cells; type: cell-based, murine
Method: FIGS. 10A-10E: confocal imaging of lipid environments targeted by ONOO^− in live RAW246.7 cells. Cells were seeded into glass microscope dishes, incubated with LNPs (50 μM) and stained with organelle trackers and/or actin dye prior to imaging. LNPs obtained from a 47.5:47.5:5.0 molar ratio of DOTMA, DOPE, and DPPC-TC-ONOO^−. FIG. 10A: cells treated with LNPs, stimulated with LPS. Time coarse images acquired after addition of LPS. FIG. 10B: cells treated with LNPs and 1400 W. FIG. 10C: cells treated with LNPs, then with 1400 W and LPS. FIGS. 10D-10E: quantitative colocalization study of cells treated with LNPs and stimulated with LPS. Pearson's correlation coefficient (PCC) was calculated for quantitative assessment of colocalization using organelle trackers as described above. Scale bars=20 μm (FIGS. 10A-10D) or 5 μm (FIG. 10E). With the utility of DPPC-TC-ONOO^− proven in synthetic protocell membranes, incorporation into live HeLa and RAW 264.7 cells was sought, which are relevant to redox-induced stress and have well-recognized pathways for RNS and ROS production. Lipid nanoparticles (LNPs) (˜100 nm in diameter) was used to deliver DPPC-TC-ONOO− into cells. This method circumvented the limited solubility of DPPC-TC-ONOO− due to the relatively hydrophobic butanone-coumarin motif. LNPs were obtained via sonication from 1,2-di-O-octadecenyl-3-trimethylammonium propane (DOTMA), 1,2-dioleoyl-sn-glycero-3-phosphoethanolamine (DOPE), and DPPC-TC-ONOO− (47.5:47.5:5.0 molar ratio), which were hydrated with a 300 mM sucrose solution. DOTMA and DOPE were chosen as the carrier lipids due to their cationic/zwitterionic natures, which has been postulated to enhance uptake through the cell membrane. The impact of different LNP compositions and incubation times on the cellular incorporation of DPPC-TC-ONOO^− was assessed. […] Specifically, LNPs containing greater than 10 mol % DPPC-TC-ONOO− were considerably more heterogenous in size (up to […] observed, in contrast to ˜100 nm) and nonuniform in vesicle lamellarity. Those with less than 4 mol % DPPC-TC-ONOO− led to insufficient fluorescence signal. To balance these counteracting factors, 5 mol % DPPC-TC-ONOO− was used, with 47.5 mol % DOTMA and DOPE, each. In these initial assays, cells were incubated with LNPs for up to 15 hours to complete the uptake and intracellular localization of DPPC-TC-ONOO−. Shorter incubation times (3-to-5 hours) led to its uptake but not subcellular localization. […] However, high serum concentration in DMEM caused interference between LNPs and serum-protein, resulting in aggregate formation as observed by microscopy. To overcome this obstacle, LNPs (50 μM) were used in a mixture of 2/3 volumetric ratio of sucrose solution and Opti-MEM™, a reduced serum medium known to increase the efficiency of lipofection. The investigations were expanded to include murine-derived macrophage model, RAW-264.7 (FIGS. 10A-10E). RNS play important roles in macrophage activation and differentiation as part of the inflammatory response. Treatment of RAW-264.7 cells with LPS leads to the expression of iNOS, which produces NO·, which then reacts with O2·^−, generating ONOO−. RAW-264.7 cells were treated with LNPs containing either DPPC-TC (positive control) or DPPC-TC-ONOO^− (FIGS. 10A-10E). […] Assessment of DPPC-TC-ONOO^− localization in RAW-264.7 cells was carried out using the ER, Golgi, mitochondrion, and lysosome trackers (FIGS. 10D-10E).

Emmax [1]: 471.2 nm
Exmax [1]: 395.0 nm
Ext. Coeff. [1]: 2784 M⁻¹ cm⁻¹
SMILES: CCCCCCCCCCCCCCCC(=O)OCC(COP(=O)([O-])OCC[N+](C)(C)Cc1cn(-c2cc3ccc(OC(=O)Oc4ccc(CCC(=O)C(F)(F)F)cc4)cc3oc2=O)nn1)OC(=O)CCCCCCCCCCCCCCC (racemic) [DPPC-TC-ONOO^−]
signal in the DPPC-TC channel (RAW-264.7 cells; RAW-264.7, 1400 W only or 1400 W and LPS): little-to-no signal
PCC (RAW-264.7 cells; RAW-264.7, ER tracker): 0.946
PCC (RAW-264.7 cells; RAW-264.7, Golgi tracker): 0.729
fluorescence intensity (RAW-264.7 cells; RAW-264.7, LNPs, stimulation with LPS over 16 hours): substantial increase in fluorescence intensity
signal at 405/475 nm (RAW-264.7 cells; RAW-264.7, LNPs, unstimulated): negligible levels of signal
